According to US4822879A, “Enzyme-inhibitory griseolic acid derivatives, and their use” (Sankyo Company Limited, priority 1984, dated 1989):

Experiments:
cAMP PDE = experiment: Enzyme inhibitory activity, cAMP PDE (crude enzymatic solution from rat brains); assay type: biochemical; conditions: for IC50: 14C-labeled cAMP substrate 0.14 μmoles, pH 8.0, 30° C., 20 minutes, read-out: I50 (50% inhibition value); for potency relative to papaverine: ratio to papaverine
Procedure: The enzyme inhibitory activity of dihydrodesoxygriseolic acid was measured, as was that of griseolic acid itself and that of the known cAMP PDE inhibitor, papaverine, for purposes of comparison.
The test was carried out following essentially the method of A. L. Pichard and Y. U. Chung [Journal of Biological Chemistry, 251, 5726-5737 (1976)]. A crude enzymatic solution derived from rat brains was used as the source of cAMP PDE.
^14 C-labeled cAMP was used as the substrate. It was employed in a 0.2M Tris-hydrochloric acid buffer solution (pH 8.0) in an amount sufficient to provide a final concentration of 0.14 μmoles. "Tris" is tris(hydroxymethyl)aminomethane. The substrate solution was mixed with an appropriate amount of the compound under test dissolved in 2-5 μl of dimethyl sulfoxide and with 20 μl of a snake venom solution and 40 μl of the crude enzyme solution. Sufficient Tris-hydrochloric acid buffer was added to make a total volume of 100 μl. The mixture was allowed to react at 30° C. for 20 minutes. At the end of this time, the reaction mixture was treated with an Amberlite (trademark) IRP-58 resin and the level of residual adenosine radioactivity in the product was determined.
The results are shown in the following Table 1, in which the I50 values are given in μmoles.

[1] = Water solubility (stated in words); assay type: physicochemical
[2] = tested on: male mice of the ddY strain; experiment: Acute toxicity, intravenous, mice; conditions: in words, from Table 2
Text: The compounds under test were griseolic acid and dihydrodesoxygriseolic acid. The test animals were male mice of the ddY strain, 5 weeks of age and weighing 24.25 g. The mice were employed in groups of 3 or 5 animals for each test.
Administration was intravenous.
The results are reported in Table 2, in the form "a/b", where "a" is the number of deceased animals in the test group at the end of the test and "b" is the total number of animals in the relevant test group.

For `Nc1ncnc2c1ncn2C1OC2CC(CC(=O)O)(C(=O)O)OC2C1O` (centres unmarked) [dihydrodesoxygriseolic acid], the IC50 (cAMP PDE) was 0.12 µM, the “inhibitory activity compared with griseolic acid” value (cAMP PDE; in words, from Table 1) was “comparable with that of griseolic acid” and the “potency relative to papaverine” value (cAMP PDE; from Table 1) was “about 20 times”. For the same compound, the water solubility [1] was “water-soluble” and the “toxicity compared with griseolic acid” value [2] was “substantially less toxic than griseolic acid”.

With `COc1ccc(Cc2nccc3cc(OC)c(OC)cc23)cc1OC` [papaverine, reference compound] the IC50 (cAMP PDE) was 3.5 µM.

In the case of `Nc1ncnc2c1ncn2[C@@H]1OC2=C[C@@](C(=O)O)(C(O)C(=O)O)O[C@H]2[C@H]1O` (some centres unmarked) [griseolic acid], the IC50 (cAMP PDE) is reported as 0.16 µM and the “potency relative to papaverine” value (cAMP PDE; from Table 1) is reported as “about 20 times”.
